In PMC11403612, “Preparation and Preclinical Characterization of a Simple Ester for Dual Exogenous Supply of Lactate and Beta-hydroxybutyrate” (Journal of Agricultural and Food Chemistry, 2024):

Tests used:
[1] = Stability of LaKe upon storage (neat, GC-FID); type: physicochemical; settings: ambient temperature
Description: Following preparation, LaKe was analyzed by GC-FID. Subsequently, LaKe was stored neat at either −15, 0, and 20 °C and the samples were reanalyzed after 24 months. Table S1 (Supporting Information) contains the corresponding stability data and the GC-FID conditions applied.

[2] = Stability of LaKe in plasma, human; type: in vitro ADME; settings: thawed); human plasma (frozen)
Description: The in vitro stability of LaKe was evaluated following incubation in simulated gastric fluid (SGF), simulated intestinal fluid (SIF), fresh and frozen plasma (rats and humans, respectively), and the presence of hepatocytes (rats and humans) and liver microsomes (rats and humans). At the chosen time points, the mixtures were analyzed by LC-MS/MS to quantify the remaining LaKe and all assays included at least one control compound with known pharmacokinetic properties. […]
centrifuged at 4000 rpm, 4℃ for 20 min. 60 μL of supernatant was mixed with 180 μL of purified water for subsequent LC/MS/MS analysis.
LC-MS/MS Condition: ACQUITY UPLC BEH C18 1.7um 2.1 * 50mm Column (Part No.186002350). Mobile phase: A: 0.1% Formic Acid in Water; B: 0.1% Formic Acid in ACN.
Stability of LaKe in simulated intestinal fluid (SIF)
Preparation of SIF-solution: 0.136 g KH2PO4 and 0.064 g pancreatin was dissolved H2O to a total volume of solution 20 mL. The pH of the test solution was adjusted to 6.80 ± 0.05.
Procedure: 2 μL of a 10mg/ml working solution of LaKe in DMSO was spiked into 96-deep-well plates corresponding to timepoints T0, T60, T120, T360 and T1440. Experiments were performed in duplicate. 198 μL of SIF solution was then transferred to the individual wells (except T0) to reach 0.1mg/ml as the final test concentration for each time point (60, 120, 360, 1440 minutes). […]

blood glucose = test: Blood glucose in extended pharmacokinetics study; type: in vivo, SD rats; settings: high-dose LaKe exposure; continuous ingestion of 5% glucose water
Description: Animals (SD rats, both male and female, 7–9 weeks) were individually housed from 24 h before dosing until the end of the study. Food was withdrawn the night before initiation of study; following food withdrawal, animals were maintained on glucose water containing 5% w/v glucose and 1% saline to suppress endogenous ketone production throughout the study. Food was returned 8 h post-test article dosing. Animals were monitored for distress or notable changes in behavior during the study. The animals were euthanized by CO2 inhalation 2 h after the last sample collection time point.
Blood collection was performed by jugular vein cannulation of each animal and divided into two parts. About 10–15 μL of blood was used for the analysis of glucose by glucometer measurement. About 0.20 mL of blood was collected into prechilled commercial EDTA-K2 tubes containing 5 μL of the esterase inhibitor (100 mM PMSF in ethanol, 40 mg/mL NaF and 120 mg/mL […] in water = 5:95(v/v). All blood samples were placed on wet ice until centrifugation.

In the case of `CC(O)CCOC(=O)C(C)O` (stereo not drawn) [LaKe, 3-hydroxybutyl 2-hydroxypropanoate], the “stability to storage in the neat state” value [1] is reported as “at least 2 years”, the half-life at 2 µM [2] is reported as < 30 min and the blood glucose (blood glucose) is reported as “nonsignificant trend toward lower glucose levels”.
